Results as given in PubChem BioAssay (NCI).
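Five concentrations, 48 hours, 96-well plates. GI50 = concentration required for 50% inhibition of growth. The concentration for full growth arrest is given as TGI.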

Tests used:
Experiment in all cases: NCI tumour cell line growth inhibition, 48 h
A549 NSCLC = tested on: A549 NSCLC
LXFL 529 NSCLC = tested on: LXFL 529 NSCLC
IGROV1 ovarian = tested on: IGROV1 ovarian
786-0 renal = tested on: 786-0 renal
HT29 colon = tested on: HT29 colon
OVCAR-8 ovarian = tested on: OVCAR-8 ovarian
OVCAR-4 ovarian = tested on: OVCAR-4 ovarian
HOP-18 NSCLC = tested on: HOP-18 NSCLC
MDA-MB-435 = tested on: MDA-MB-435
MDA-MB-231 breast = tested on: MDA-MB-231 breast

SMILES	TGI (A549 NSCLC) [µM]	TGI (LXFL 529 NSCLC) [µM]	TGI (IGROV1 ovarian) [µM]	TGI (786-0 renal) [µM]	TGI (HT29 colon) [µM]	TGI (OVCAR-8 ovarian) [µM]	TGI (OVCAR-4 ovarian) [µM]	TGI (HOP-18 NSCLC) [µM]	GI50 (OVCAR-4 ovarian) [µM]	GI50 (A549 NSCLC) [µM]	GI50 (MDA-MB-435) [µM]	TGI (MDA-MB-435) [µM]	GI50 (IGROV1 ovarian) [µM]	GI50 (786-0 renal) [µM]	GI50 (HT29 colon) [µM]	GI50 (OVCAR-8 ovarian) [µM]	GI50 (MDA-MB-231 breast) [µM]	TGI (MDA-MB-231 breast) [µM]
O=c1[nH]c(C2CCCCC2)nc2ccc(Cl)cc12	> 100	> 100	> 100	> 100	> 100	> 100	–	–	–	–	–	–	–	–	–	–	–	–
Cc1c2cc[n+](C)cc2c(C)c2c1[nH]c1ccc(OC(C)(C)C)cc12	> 100	> 100	> 100	> 100	> 100	> 100	> 100	> 100	–	–	–	–	–	–	–	–	–	–
COc1ccc(C2[C@@H](Cl)C(=O)N2c2ccc(OC)cc2)cc1 (stereo partly specified)	> 100	> 100	> 100	> 100	> 100	> 100	–	–	–	–	–	–	–	–	–	–	–	–
COC(=O)/C(=C1\OC(=O)C(c2ccc(Cl)cc2)=C1O)c1ccc(Cl)cc1	84.3	87.7	> 100	> 100	> 100	> 100	> 100	> 100	–	–	–	–	–	–	–	–	–	–
CC1=NN(c2ccccc2)C(=O)C1N=Nc1ccc(Br)cc1C (stereo unspecified)	> 100	> 100	> 100	> 100	> 100	> 100	> 100	> 100	–	–	–	–	–	–	–	–	–	–
Cc1ccccc1C1SCc2nc3ccccc3n21 (stereo unspecified)	> 100	–	> 100	> 100	–	> 100	–	> 100	–	–	–	–	–	–	–	–	–	–
OCC1OC(NO)C(O)C(O)C1O (stereo unspecified)	> 100	> 100	> 100	> 100	> 100	> 100	> 100	> 100	–	–	–	–	–	–	–	–	–	–
CC1O[C@@H]2CCCCC(=O)[C@]2(C)[C@H]1C (stereo partly specified)	> 100	> 100	> 100	> 100	> 100	> 100	> 100	> 100	–	–	–	–	–	–	–	–	–	–
O=S1c2ccccc2N=C(c2cccs2)CC1c1ccccc1O (stereo unspecified)	> 100	> 100	> 100	> 100	> 100	> 100	> 100	–	–	–	–	–	–	–	–	–	–	–
CCn1c(C)nc([N+](=O)[O-])c1Sc1ncc[nH]1	> 100	> 100	> 100	> 100	> 100	> 100	> 100	73.8	–	–	–	–	–	–	–	–	–	–
Cc1cccc(Nc2ncc(-c3ccccc3)o2)c1	> 25	–	> 25	> 25	> 25	> 25	> 25	–	> 25	> 25	> 25	> 25	> 25	> 25	> 25	> 25	> 18.8	> 25
O=S1(=O)CC#CC[C@@H](CO)[C@@H](CO)CC#CC1	> 100	> 100	> 100	> 100	> 100	> 100	> 100	–	–	–	–	–	–	–	–	–	–	–
CCN(Cc1c(F)cccc1C(F)(F)F)c1ccc(CO)c(Cl)c1	23.1	–	–	30.9	17.7	31.3	9.9	–	0.132	5.56	14.2	28.3	< 0.0338	15.9	2.99	14.6	14.6	28.3
Cc1ccc(O)c(C(=O)/C=C/c2ccccc2)c1	> 100	–	> 100	> 100	> 100	> 100	> 100	–	–	–	–	> 100	–	–	–	–	–	> 100
COc1ccc(N2CCN(c3nc(-c4ccccn4)nc4sc5c(c34)CCCCCC5)CC2)cc1	> 100	–	> 100	> 100	> 100	> 100	> 100	–	8.58	3.25	5.49	> 100	5.34	8.45	5.06	5.23	49.6	> 100
CC1(/C=C/c2ccc(-c3ccccc3)cc2)CCn2cnc3ncnc(c32)N1O (stereo unspecified)	23.5	–	14.1	4.49	41.7	> 55.1	> 50.2	–	0.298	0.466	0.646	39.6	0.337	0.259	0.526	0.419	0.509	63.2
c1ccc(OCC[P+](c2ccccc2)(c2ccccc2)c2ccccc2)cc1	82.5	–	11.8	20.8	10.9	15	9.44	–	0.66	2.96	0.433	4.31	0.905	5.15	0.308	1.54	2.44	23.9
O=C(Nc1n[nH]c2cc(-c3ccc(F)cc3)ccc12)C1CC1	> 25	–	> 25	> 25	> 25	> 25	> 25	–	9.87	10.5	2.31	12.1	> 21.8	17.7	7.9	12.8	12.6	> 25
Cc1cc(NCCCCCCCCNc2cc(C)nc3cc(N(C)C)ccc23)c2ccc(N(C)C)cc2n1	21.8	16	–	21	–	38.2	21.6	–	–	–	–	–	–	–	–	–	–	–
COc1ccc(NC(=O)CC2SC(=Nc3ccc(Cl)cc3C)NC2=O)c([N+](=O)[O-])c1 (stereo unspecified)	> 100	> 100	> 100	> 100	> 100	> 100	> 100	–	–	–	–	–	–	–	–	–	–	–
Clc1ccc(Nc2nnc(COc3ccccc3)c3ccccc23)cc1	12.3	–	6.37	8.11	4.25	15	25	–	2.09	2.87	1.01	5.31	1.14	2.6	0.429	3.49	1.28	6.9
COc1cc(N2CCN(C(C)C)CC2)ccc1Nc1nc(Nc2ccc(F)cc2C(N)=O)c2cc[nH]c2n1	4.17	–	6.94	5.45	2.88	5.43	7.04	–	2.98	0.121	0.242	5.45	0.392	1.33	0.0208	0.363	2.98	7.22
